In general, pEC50 refers to the negative decadic logarithm of the EC50, by convention in mol/L. A higher pEC50 goes with a low EC50.

For assay [1], the target named is T1, FXR (Homo sapiens (Human), UniProt Q96RI1). The assay is described as follows: FXR EC50 (FXR agonist potency reported with each Example). The assay is classed as cell-based.
For assay [2], the target named is T1, FXR. The assay is described as follows: transient human FXR/Gal4-luciferase reporter assay. The class given is cell-based. The method, boiled down:
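HEK293 cells stably carrying a 5×Gal4 response element–firefly luciferase reporter were transiently transfected overnight with a Gal4 DBD–human FXR LBD fusion plasmid. Compound was added in DMSO and cells were incubated overnight at 37 °C, 5% CO2. Activity was read as Steady-Glo luminescence.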
(In a reporter assay the amount or activity of a reporter protein is the signal.)

[3] abbreviates: Gal4-hFXR fusion construct, HEK293 reporter cells, response relative to 8 μM GW-4064.

Structures are written as SMILES. pEC50: −log10 of the molar value.

T1 sequence (Q96RI1 262-486): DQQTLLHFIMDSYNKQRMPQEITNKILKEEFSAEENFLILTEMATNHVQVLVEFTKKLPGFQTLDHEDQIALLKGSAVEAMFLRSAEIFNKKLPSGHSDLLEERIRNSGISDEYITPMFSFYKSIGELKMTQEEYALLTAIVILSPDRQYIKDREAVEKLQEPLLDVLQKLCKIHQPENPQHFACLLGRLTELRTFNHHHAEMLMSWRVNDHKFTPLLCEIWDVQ

In the case of `CCc1noc(-c2cccc(N(CC34CCC(c5nc(C6CC6)no5)(CC3)CC4)C(=O)C3CC(C(F)F)C3)c2)n1` (centres unmarked) [Example 4, N-((4-(3-cyclopropyl-1,2,4-oxadiazol-5-yl)bicyclo[2.2.2]octan-1-yl)methyl)-3-(difluoromethyl)-N-(3-(3-ethyl-1,2,4-oxadiazol-5-yl)phenyl)cyclobutane-1-carboxamide], at FXR [1], the pEC50 is 6.49. Still for that read-out and setting: the result for `O=C(N(CC12CCC(c3noc(C(F)F)n3)(CC1)CC2)c1cccc(-c2nc(C3CC3)no2)c1)C12CC(F)(C1)C2` [Example 117, N-(3-(3-cyclopropyl-1,2,4-oxadiazol-5-yl)phenyl)-N-((4-(5-(difluoromethyl)-1,2,4-oxadiazol-3-yl)bicyclo[2.2.2]octan-1-yl)methyl)-3-fluorobicyclo[1.1.1]pentane-1-carboxamide] reads 7.92; that for `COCc1nc(-c2cccc(N(CC34CCC(c5nc(C6CC6)no5)(CC3)CC4)C(=O)C3CC(C(F)F)C3)c2)cs1` (centres unmarked) [Example 73, N-((4-(3-cyclopropyl-1,2,4-oxadiazol-5-yl)bicyclo[2.2.2]octan-1-yl)methyl)-3-(difluoromethyl)-N-(3-(2-(methoxymethyl)thiazol-4-yl)phenyl)cyclobutane-1-carboxamide], 6.47; that for `O=C(N(CC12CCC(c3nc(C4CC4)no3)(CC1)CC2)c1cccc(-c2cc(C3CC3)on2)c1)C12CC(F)(C1)C2` [Example 57, N-((4-(3-cyclopropyl-1,2,4-oxadiazol-5-yl)bicyclo[2.2.2]octan-1-yl)methyl)-N-(3-(5-cyclopropylisoxazol-3-yl)phenyl)-3-fluorobicyclo[1.1.1]pentane-1-carboxamide], 7.70.

`CC(C)(C)c1nc(-c2cccc(N(CC34CCC(c5noc(C(C)(C)C)n5)(CC3)CC4)C(=O)C34CC(F)(C3)C4)c2)no1` [Example 183, N-((4-(5-(tert-butyl)-1,2,4-oxadiazol-3-yl)bicyclo[2.2.2]octan-1-yl)methyl)-N-(3-(5-(tert-butyl)-1,2,4-oxadiazol-3-yl)phenyl)-3-fluorobicyclo[1.1.1]pentane-1-carboxamide] gave a pEC50 at FXR [1] of 7.74. Same read-out and setting: the result for `CCCc1ncc(-c2cccc(N(CC34CCC(c5nc(C6CC6)no5)(CC3)CC4)C(=O)C3CC(C(F)F)C3)c2)o1` (centres unmarked) [Example 28, N-((4-(3-cyclopropyl-1,2,4-oxadiazol-5-yl)bicyclo[2.2.2]octan-1-yl)methyl)-3-(difluoromethyl)-N-(3-(2-propyloxazol-5-yl)phenyl)cyclobutane-1-carboxamide] reads 6.61. On the same count and under the same terms, the result for `CCCc1ncc(-c2cccc(N(CC34CCC(c5nc(C6CC6)no5)(CC3)CC4)C(=O)C3CC(F)(F)C3)c2)o1` [Example 27, N-((4-(3-cyclopropyl-1,2,4-oxadiazol-5-yl)bicyclo[2.2.2]octan-1-yl)methyl)-3,3-difluoro-N-(3-(2-propyloxazol-5-yl)phenyl)cyclobutane-1-carboxamide] reads 6.83. Compound `COc1ccc(C23CCC(CN(C(=O)C45CC(F)(C4)C5)c4cccc(-c5nc(C6CC6)no5)c4)(CC2)CO3)cc1` [Example 128, N-(3-(3-Cyclopropyl-1,2,4-oxadiazol-5-yl)phenyl)-3-fluoro-N-((1-(4-methoxyphenyl)-2-oxabicyclo[2.2.2]octan-4-yl)methyl)bicyclo[1.1.1]pentane-1-carboxamide] showed a pEC50 at FXR [1] of 6.39.

On FXR [1], `COc1ccc(NC(=O)N(CC23CCC(c4nc(C5CC5)no4)(CC2)CC3)c2cccc(-c3nc(C4CC4)no3)c2)cc1` [Example 96, 1-((4-(3-cyclopropyl-1,2,4-oxadiazol-5-yl)bicyclo[2.2.2]octan-1-yl)methyl)-1-(3-(3-cyclopropyl-1,2,4-oxadiazol-5-yl)phenyl)-3-(4-methoxyphenyl)urea] gave a pEC50 of 6.19. Compared with the last compound, the pEC50 is 0.20 log units lower.

On FXR [1], `N#CC1(c2ccc(C34CCC(CN(C(=O)C5CC(C(F)F)C5)c5cccc(-c6nnc(C7CC7)o6)c5)(CC3)CO4)cc2)CC1` (centres unmarked) [Example 144, N-((1-(4-(1-Cyanocyclopropyl)phenyl)-2-oxabicyclo[2.2.2]octan-4-yl)methyl)-N-(3-(5-cyclopropyl-1,3,4-oxadiazol-2-yl)phenyl)-3-(difluoromethyl)cyclobutane-1-carboxamide] had a pEC50 of 5.67. The same measure, in the same setting: to `O=C(C1CC(F)(F)C1)N(CC12CCC(c3nc(C4CC4)no3)(CC1)CC2)c1cccc(-c2cnc(C3CCOCC3)o2)c1` [Example 36, N-((4-(3-cyclopropyl-1,2,4-oxadiazol-5-yl)bicyclo[2.2.2]octan-1-yl)methyl)-3,3-difluoro-N-(3-(2-(tetrahydro-2H-pyran-4-yl)oxazol-5-yl)phenyl)cyclobutane-1-carboxamide] belongs 6.30. The same measure, in the same setting: to `O=C(C1CCC1)N(CC12CCC(c3nc(CC4CC4)no3)(CC1)CC2)c1cccc(-c2nc(C3CC3)no2)c1` [Example 71, N-(3-(3-cyclopropyl-1,2,4-oxadiazol-5-yl)phenyl)-N-((4-(3-(cyclopropylmethyl)-1,2,4-oxadiazol-5-yl)bicyclo[2.2.2]octan-1-yl)methyl)cyclobutanecarboxamide] belongs 6.39; to `N#CC1(c2ccc(C34CCC(CN(C(=O)C56CC(F)(C5)C6)c5cccc(-c6nc(C7CC7)no6)c5)(CC3)CO4)cc2)CC1` [Example 143, N-((1-(4-(1-cyanocyclopropyl)phenyl)-2-oxabicyclo[2.2.2]octan-4-yl)methyl)-N-(3-(3-cyclopropyl-1,2,4-oxadiazol-5-yl)phenyl)-3-fluorobicyclo[1.1.1]pentane-1-carboxamide], 7.05. The same measure, in the same setting: to `O=C(N(CC12CCC(c3nc(C4CC4)no3)(CC1)CC2)c1cccc(-c2ccn(C3COC3)n2)c1)C12CC(F)(C1)C2` [Example 149, N-((4-(3-cyclopropyl-1,2,4-oxadiazol-5-yl)bicyclo[2.2.2]octan-1-yl)methyl)-3-fluoro-N-(3-(1-(oxetan-3-yl)-1H-pyrazol-3-yl)phenyl)bicyclo[1.1.1]pentane-1-carboxamide] belongs 6.95. In turn, `CC(F)(F)c1nc(C23CCC(CN(C(=O)OC(C)(C)C(F)(F)F)c4cc(-c5ccc(OC(F)(F)Cl)cc5)ccn4)(CC2)CC3)no1` [Example 615, 1,1,1-trifluoro-2-methylpropan-2-yl (4-(4-(chlorodifluoromethoxy)phenyl)pyridin-2-yl)((4-(5-(1,1-difluoroethyl)-1,2,4-oxadiazol-3-yl)bicyclo[2.2.2]octan-1-yl)methyl)carbamate] showed a pEC50 on FXR [2] (setting [3]) of 6.33. At FXR [2], `CCOc1ccc(-c2cccc(N(CC34CCC(c5noc(C(F)F)n5)(CC3)CC4)C(=O)C34CC(F)(C3)C4)c2)cc1` [Example 461, N-((4-(5-(difluoromethyl)-1,2,4-oxadiazol-3-yl)bicyclo[2.2.2]octan-1-yl)methyl)-N-(4′-ethoxy-[1,1′-biphenyl]-3-yl)-3-fluorobicyclo[1.1.1]pentane-1-carboxamide] gave a pEC50 of 6.22. Turning to `COc1cc(-c2cccc(N(CC34CCC(c5ccnc(C)c5)(CC3)CC4)C(=O)C34CC(F)(C3)C4)c2)ccn1` [Example 238, 3-Fluoro-N-(3-(2-methoxypyridin-4-yl)phenyl)-N-((4-(2-methylpyridin-4-yl)bicyclo[2.2.2]octan-1-yl)methyl)bicyclo[1.1.1]pentane-1-carboxamide], at FXR [2] (setting [3]), the pEC50 was 6.29. The same measure, in the same setting: the result for `CC(C)(O)c1ccc(-c2ccnc(N(CC34CCC(c5noc(C(C)(F)F)n5)(CC3)CC4)C(=O)OC(C)(C)C(F)(F)F)c2)cc1` [Example 609, 1,1,1-trifluoro-2-methylpropan-2-yl((4-(5-(1,1-difluoroethyl)-1,2,4-oxadiazol-3-yl)bicyclo[2.2.2]octan-1-yl)methyl)(4-(4-(2-hydroxypropan-2-yl)phenyl)pyridin-2-yl)carbamate] reads 7.52. For the compound `CCOc1ncc(-c2cccc(N(CC34CCC(c5noc(C(C)(C)C)n5)(CC3)CC4)C(=O)C3(C)COC3)c2)cn1` [Example 510, N-((4-(5-(tert-butyl)-1,2,4-oxadiazol-3-yl)bicyclo[2.2.2]octan-1-yl)methyl)-N-(3-(2-ethoxypyrimidin-5-yl)phenyl)-3-methyloxetane-3-carboxamide], the pEC50 at FXR [2] is 6.01.

For `O=C(N(CC12CCC(c3nc(C4CC4)no3)(CC1)CC2)c1cccc(-c2ccc(C(F)(F)F)cc2)c1)C12CC(F)(C1)C2` [Example 253, N-((4-(3-cyclopropyl-1,2,4-oxadiazol-5-yl)bicyclo[2.2.2]octan-1-yl)methyl)-3-fluoro-N-(4′-(trifluoromethyl)-[1,1′-biphenyl]-3-yl)bicyclo[1.1.1]pentane-1-carboxamide], the pEC50 at FXR [2] (setting [3]) is 6.60. For `Cc1nc2ccc(-c3ccnc(N(CC45CCC(c6nc(C7CC7)no6)(CC4)CC5)C(=O)C45CC(F)(C4)C5)c3)cc2o1` [Example 550, N-((4-(3-cyclopropyl-1,2,4-oxadiazol-5-yl)bicyclo[2.2.2]octan-1-yl)methyl)-3-fluoro-N-(4-(2-methylbenzo[d]oxazol-6-yl)pyridin-2-yl)bicyclo[1.1.1]pentane-1-carboxamide], the pEC50 at FXR [2] (setting [3]) was 7.15. This pEC50 lies 0.55 log units higher than the previous one. The same measure, in the same setting: to `Cc1nc2ccc(-c3cccc(N(CC45CCC(c6cc(C7CC7)n(C)n6)(CC4)CC5)C(=O)C45CC(F)(C4)C5)c3)cc2s1` [Example 409, N-((4-(5-cyclopropyl-1-methyl-1H-pyrazol-3-yl)bicyclo[2.2.2]octan-1-yl)methyl)-3-fluoro-N-(3-(2-methylbenzo[d]thiazol-6-yl)phenyl)bicyclo[1.1.1]pentane-1-carboxamide] belongs 7.14. The same measure, in the same setting: the result for `N#Cc1cnn2c(-c3cccc(N(CC45CCC(c6nc(C7CC7)no6)(CC4)CC5)C(=O)C45CC(F)(C4)C5)c3)cnc2c1` [Example 314, N-(3-(7-cyanoimidazo[1,2-b]pyridazin-3-yl)phenyl)-N-((4-(3-cyclopropyl-1,2,4-oxadiazol-5-yl)bicyclo[2.2.2]octan-1-yl)methyl)-3-fluorobicyclo[1.1.1]pentane-1-carboxamide] reads 6.30.

Source of the values: US11254663B2 (BRISTOL-MYERS SQUIBB COMPANY, priority 2019, dated 2022).
